Tested on: IL-1 β mediated PGE2 in HEPM monolayer cells
Assay: IL-1β mediated PGE2 suppression, HEPM monolayer cell model
Type: cell-based
Conditions: cells treated with IL-1 β
Excerpt: IL-1 β Mediated PGE2 Suppression with Gymnema sylvestre Treatment (Cell Model)
PGE2, a marker of inflammation, can be increased via administration of IL-1 β. Samples are subjected to the HEPM monolayer cell model assay. […]

In the case of `Oc1cc(Cl)ccc1Oc1ccc(Cl)cc1Cl` [Triclosan], the PGE2 (0.0005%) is reported as 715.9 pg/mL and the PGE2 (0.001%) is reported as 520.9 pg/mL.

Reference: US20220362138A1, “Oral Care Compositions and Methods of Use” (Colgate-Palmolive Company, priority 2020, published 2022)
